Laboratory results from PubChem BioAssay AID248 (DTP/NCI, 2004).
Several values for one entry are separate records, joined by “and”; a condition that tells them apart may be missing. Equal entries are not always repeated. Toxic doses and inconclusive results are not listed.

Tested on: L1210 leukemia ip in BDF1 mice, survival T/C
Assay: NCI In Vivo Anticancer Drug Screen. Data for tumor model L1210 Leukemia (intraperitoneal) in B6D2F1 (BDF1) mice
Settings: endpoint: mean survival time, higher = longer survival
Summary of the method: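 Read-out is survival time, reported as the treated-group measurement over the vehicle-control measurement.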

[1] = dose: 100.0 mg/kg/injection, schedule: Q04DX002 (ip), vehicle: Klucel (hydroxypropylcellulose) (HPC)
[2] = dose: 100.0 mg/kg/injection, schedule: Q04DX003 (ip), vehicle: Klucel (hydroxypropylcellulose) (HPC)
[3] = dose: 200.0 mg/kg/injection, schedule: Q04DX002 (ip), vehicle: Klucel (hydroxypropylcellulose) (HPC)
[4] = dose: 200.0 mg/kg/injection, schedule: Q04DX003 (ip), vehicle: Klucel (hydroxypropylcellulose) (HPC)
[5] = dose: 400.0 mg/kg/injection, schedule: Q04DX003 (ip), vehicle: Klucel (hydroxypropylcellulose) (HPC)
[6] = dose: 50.0 mg/kg/injection, schedule: Q01DX009 (ip), vehicle: saline with Tween-80
[7] = dose: 100.0 mg/kg/injection, schedule: Q01DX009 (ip), vehicle: saline with Tween-80
[8] = dose: 200.0 mg/kg/injection, schedule: Q01DX009 (ip), vehicle: saline with Tween-80

For `Cc1nc(N)[nH]c(=O)c1CCCCC#N`, the T/C (dose: 100.0 mg/kg/injection, schedule: Q01DX001 (ip), vehicle: Klucel (hydroxypropylcellulose) (HPC)) was 100 % of control, the T/C (dose: 100.0 mg/kg/injection, schedule: Q01DX009 (ip), vehicle: Klucel (hydroxypropylcellulose) (HPC)) was 93 % of control and 106 % of control and the T/C [1] was 100 % of control and 102 % of control. The T/C [2] was 97 % of control, the T/C (dose: 200.0 mg/kg/injection, schedule: Q01DX001 (ip), vehicle: Klucel (hydroxypropylcellulose) (HPC)) was 100 % of control and the T/C (dose: 200.0 mg/kg/injection, schedule: Q01DX009 (ip), vehicle: Klucel (hydroxypropylcellulose) (HPC)) was 95 % of control and 100 % of control. For the same molecule, the T/C [3] was 102 % of control and 107 % of control, the T/C [4] was 111 % of control and the T/C (dose: 400.0 mg/kg/injection, schedule: Q01DX001 (ip), vehicle: Klucel (hydroxypropylcellulose) (HPC)) was 100 % of control. The T/C (dose: 400.0 mg/kg/injection, schedule: Q01DX009 (ip), vehicle: Klucel (hydroxypropylcellulose) (HPC)) was 117 % of control, the T/C (dose: 400.0 mg/kg/injection, schedule: Q04DX002 (ip), vehicle: Klucel (hydroxypropylcellulose) (HPC)) was 100 % of control and 104 % of control and the T/C [5] was 102 % of control.

For `Clc1ccccc1/C=N/Nc1c2ccccc2nc2ccccc12`, the T/C (dose: 400.0 mg/kg/injection, schedule: Q01DX001 (ip), vehicle: saline) was 87 % of control.

In the case of `CCOc1nc(N)nc(-c2ccc(OC)cc2)c1Br`, the T/C (dose: 100.0 mg/kg/injection, schedule: Q04DX002 (ip), vehicle: saline with Tween-80) was 94 % of control, the T/C (dose: 200.0 mg/kg/injection, schedule: Q04DX002 (ip), vehicle: saline with Tween-80) was 102 % of control and the T/C (dose: 400.0 mg/kg/injection, schedule: Q04DX002 (ip), vehicle: saline with Tween-80) was 97 % of control.

In the case of `CC12c3ccccc3C(c3c1ccc1ccccc31)C1C(=O)OC(=O)C12` (stereo not drawn), the T/C [2] was 96 % of control, the T/C [4] was 104 % of control and the T/C [5] was 98 % of control.

With `C=CCN(CC=C)P(=O)(N1CC1C)N1CC1C` (stereo not drawn) the T/C (dose: 1.0 mg/kg/injection, schedule: Q01DX009 (ip), vehicle: saline) was 124 % of control and the T/C (dose: 3.0 mg/kg/injection, schedule: Q01DX009 (ip), vehicle: saline) was 172 % of control.

`O=C(O)c1ccc(CCCCc2ccccc2)cc1` was tested, and the T/C (dose: 25.0 mg/kg/injection, schedule: Q01DX001 (ip), vehicle: saline with Tween-80) was 103 % of control, the T/C (dose: 50.0 mg/kg/injection, schedule: Q01DX001 (ip), vehicle: saline with Tween-80) was 121 % of control and the T/C (dose: 100.0 mg/kg/injection, schedule: Q01DX001 (ip), vehicle: saline with Tween-80) was 107 % of control.

With `Clc1cc(N2CC2)nc(N2CC2)n1` the T/C (dose: 1.56 mg/kg/injection, schedule: Q01DX001 (ip), vehicle: saline) was 92 % of control, the T/C (dose: 1.56 mg/kg/injection, schedule: Q04DX003 (ip), vehicle: saline) was 110 % of control and the T/C (dose: 1.6 mg/kg/injection, schedule: Q01DX009 (ip), vehicle: carboxymethylcellulose (CMC)) was 118 % of control. For the same molecule, the T/C (dose: 2.14 mg/kg/injection, schedule: Q01DX009 (ip), vehicle: saline) was 166 % of control and 184 % of control, the T/C (dose: 2.5 mg/kg/injection, schedule: Q01DX001 (ip), vehicle: carboxymethylcellulose (CMC)) was 111 % of control and the T/C (dose: 2.7 mg/kg/injection, schedule: Q01DX009 (ip), vehicle: carboxymethylcellulose (CMC)) was 120 % of control. The T/C (dose: 3.12 mg/kg/injection, schedule: Q01DX001 (ip), vehicle: saline) was 93 % of control, the T/C (dose: 3.25 mg/kg/injection, schedule: Q01DX009 (ip), vehicle: saline with Tween-80) was 185 % of control and the T/C (dose: 3.25 mg/kg/injection, schedule: Q01DX009 (ip), vehicle: saline) was 177 % of control and 226 % of control. The T/C (dose: 4.12 mg/kg/injection, schedule: Q04DX003 (ip), vehicle: saline) was 156 % of control, the T/C (dose: 4.44 mg/kg/injection, schedule: Q01DX001 (ip), vehicle: carboxymethylcellulose (CMC)) was 115 % of control and the T/C (dose: 4.87 mg/kg/injection, schedule: Q01DX009 (ip), vehicle: saline) was 103 % of control. The T/C (dose: 5.0 mg/kg/injection, schedule: Q01DX001 (ip), vehicle: carboxymethylcellulose (CMC)) was 120 % of control, the T/C (dose: 5.0 mg/kg/injection, schedule: Q01DX001 (ip), vehicle: saline) was 118 % of control and the T/C (dose: 6.25 mg/kg/injection, schedule: Q01DX001 (ip), vehicle: saline) was 98 % of control. The T/C (dose: 6.25 mg/kg/injection, schedule: Q04DX003 (ip), vehicle: saline) was 166 % of control and 173 % of control and 202 % of control, the T/C (dose: 6.67 mg/kg/injection, schedule: Q01DX001 (ip), vehicle: carboxymethylcellulose (CMC)) was 121 % of control and the T/C (dose: 7.5 mg/kg/injection, schedule: Q01DX009 (ip), vehicle: carboxymethylcellulose (CMC)) was 106 % of control. The T/C (dose: 10.0 mg/kg/injection, schedule: Q01DX001 (ip), vehicle: carboxymethylcellulose (CMC)) was 154 % of control, the T/C (dose: 10.0 mg/kg/injection, schedule: Q01DX001 (ip), vehicle: saline) was 156 % of control and 160 % of control and the T/C (dose: 15.0 mg/kg/injection, schedule: Q01DX001 (ip), vehicle: saline) was 160 % of control. For the same molecule, the T/C (dose: 20.0 mg/kg/injection, schedule: Q01DX001 (ip), vehicle: carboxymethylcellulose (CMC)) was 104 % of control.

For `C/C=C/C=C/COC(=O)CCCCCCC`, the T/C (dose: 25.0 mg/kg/injection, schedule: Q04DX002 (ip), vehicle: saline) was 107 % of control, the T/C (dose: 50.0 mg/kg/injection, schedule: Q04DX002 (ip), vehicle: saline) was 103 % of control and the T/C (dose: 100.0 mg/kg/injection, schedule: Q04DX002 (ip), vehicle: saline) was 103 % of control. For the same molecule, the T/C (dose: 200.0 mg/kg/injection, schedule: Q04DX002 (ip), vehicle: saline) was 110 % of control and 112 % of control and the T/C (dose: 400.0 mg/kg/injection, schedule: Q04DX002 (ip), vehicle: saline) was 100 % of control.

With `C=Cc1c(C)c(O)cc2c1CC[C@@H]1C(C)(C)[C@H](O)[C@H](O)C[C@@]21C` the T/C (dose: 100.0 mg/kg/injection, schedule: Q04DX003 (ip), vehicle: saline with Tween-80) was 103 % of control, the T/C (dose: 200.0 mg/kg/injection, schedule: Q04DX003 (ip), vehicle: saline with Tween-80) was 100 % of control and the T/C (dose: 400.0 mg/kg/injection, schedule: Q04DX003 (ip), vehicle: saline with Tween-80) was 98 % of control.

`CCOC(=O)c1[nH]c(-c2ccccc2)cc1-c1ccccc1` was tested, and the T/C [2] was 118 % of control, the T/C [4] was 108 % of control and the T/C [5] was 108 % of control.

`O=S(=O)(Cc1ccc(Cl)cc1Cl)Cc1ccc(Cl)cc1Cl` was tested, and the T/C [2] was 89 % of control, the T/C [4] was 87 % of control and the T/C [5] was 87 % of control.

In the case of `O=[N+]([O-])c1ccc(C(O)C=C(C(F)(F)F)C(F)(F)F)cc1` (stereo not drawn), the T/C (dose: 12.5 mg/kg/injection, schedule: Q01DX009 (ip), vehicle: Klucel (hydroxypropylcellulose) (HPC)) was 100 % of control, the T/C (dose: 25.0 mg/kg/injection, schedule: Q01DX009 (ip), vehicle: Klucel (hydroxypropylcellulose) (HPC)) was 97 % of control and the T/C [2] was 95 % of control. The T/C [4] was 95 % of control and the T/C [5] was 97 % of control.

For `CC(=O)Oc1ccc2c(c1)C(=O)CCCC2`, the T/C [6] was 88 % of control, the T/C [7] was 88 % of control and the T/C [8] was 88 % of control.

In the case of `Cc1sc2ccc(-c3ccccc3)cc2[n+]1C`, the T/C (dose: 75.0 mg/kg/injection, schedule: Q01DX001 (ip), vehicle: saline) was 105 % of control, the T/C (dose: 150.0 mg/kg/injection, schedule: Q01DX001 (ip), vehicle: saline) was 102 % of control and the T/C (dose: 300.0 mg/kg/injection, schedule: Q01DX001 (ip), vehicle: saline) was 107 % of control.

With `CSc1nc(N)c(N=Nc2ccc(S(=O)(=O)Nc3cc(C)nc(C)n3)cc2)c(=O)[nH]1` the T/C (dose: 100.0 mg/kg/injection, schedule: Q01DX001 (ip), vehicle: carboxymethylcellulose (CMC)) was 103 % of control, the T/C (dose: 200.0 mg/kg/injection, schedule: Q01DX001 (ip), vehicle: carboxymethylcellulose (CMC)) was 95 % of control and the T/C (dose: 400.0 mg/kg/injection, schedule: Q01DX001 (ip), vehicle: carboxymethylcellulose (CMC)) was 97 % of control.

For `CC(C)(C)OC(=O)C1(c2ccccc2)OC1c1ccccc1` (stereo not drawn), the T/C [2] was 105 % of control, the T/C [4] was 100 % of control and the T/C [5] was 96 % of control.

For `O=C(COc1ccc(Cl)cc1Cl)Nc1ccc(-c2ccc(NC(=O)COc3ccc(Cl)cc3Cl)cc2)cc1`, the T/C (dose: 50.0 mg/kg/injection, schedule: Q04DX002 (ip), vehicle: Klucel (hydroxypropylcellulose) (HPC)) was 89 % of control, the T/C [1] was 89 % of control and the T/C [3] was 100 % of control.

`COc1c2c(c(C(=O)O)c3ccncc13)CC(C)(C)C2` was tested, and the T/C [6] was 102 % of control, the T/C [7] was 98 % of control and the T/C [8] was 101 % of control.

`N#CC(NC(=O)NCCCl)c1ccccc1` (stereo not drawn) was tested, and the T/C [2] was 104 % of control and the T/C [4] was 101 % of control.

`Cc1ccc([N+](=O)[O-])cc1NC(=O)C(Cl)(Cl)Cl` was tested, and the T/C [7] was 94 % of control, the T/C [8] was 98 % of control and the T/C (dose: 400.0 mg/kg/injection, schedule: Q01DX009 (ip), vehicle: saline with Tween-80) was 100 % of control.
